Ring closure, yield of all isomers data for 2 molecules are collected here from patent US7371853.

The conditions of this series: amide bond, BOP, DCM, 25.0 °C.

Structures are written as SMILES. Like-named read-outs stand apart in the source and are kept apart here.

On to `COC(=O)[C@@H]1Cc2cccc(c2)OCCNC(=O)c2cc(cc(N(C)S(C)(=O)=O)c2)C(=O)N1`, for which the ring closure, yield of all isomers (from COC(=O)[C@H](Cc1cccc(OCCN)c1)NC(=O)c1cc(C(=O)O)cc(N(C)S(C)(=O)=O)c1, 2.0 h, 2 steps) came to 30%.
`COC(=O)C1Cc2cccc(c2)OC[C@H](c2ccccc2)NC(=O)c2cc(cc(N(C)S(C)(=O)=O)c2)C(=O)N1` (some centres unmarked) yielded a ring closure, yield of all isomers (from COC(=O)C(N)Cc1cccc(OC[C@@H](NC(=O)c2cc(C(=O)O)cc(N(C)S(C)(=O)=O)c2)c2ccccc2)c1, 1.76 mM, 72.0 h) of 62%.
